In ChEMBL document CHEMBL1201862, “PubChem BioAssay data set” (2004):
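These data come from cells grown in 96-well plates and exposed to compound for 48 hours at five concentrations. At the GI50, growth is halved.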 Calls of active or inactive are those of the source. Cut-off read from the data, not from the text of the source: active = GI50 up to about 1.1 µM and inactive = higher.

Tests used:
Assay in all cases: DTP human tumour cell line panel, 48 h
A498 = tested on: A498
CAKI-1 = tested on: CAKI-1
CCRF-CEM = tested on: CCRF-CEM
EKVX = tested on: EKVX
HCT-116 = tested on: HCT-116
HOP-62 = tested on: HOP-62
HOP-92 = tested on: HOP-92
HT-29 = tested on: HT-29
K562 = tested on: K562
KM12 = tested on: KM12
M14 = tested on: M14
NCI-H460 = tested on: NCI-H460
RXF 393 = tested on: RXF 393
SF-295 = tested on: SF-295
SK-MEL-5 = tested on: SK-MEL-5
SK-OV-3 = tested on: SK-OV-3
SN12C = tested on: SN12C
SNB-75 = tested on: SNB-75
UACC-257 = tested on: UACC-257
UO-31 = tested on: UO-31

Structure (SMILES) | GI50 (A498) | GI50 (CAKI-1) | GI50 (CCRF-CEM) | GI50 (EKVX) | GI50 (HCT-116) | GI50 (HOP-62) | GI50 (HOP-92) | GI50 (HT-29) | GI50 (K562) | GI50 (KM12) | GI50 (M14) | GI50 (NCI-H460) | GI50 (RXF 393) | GI50 (SF-295) | GI50 (SK-MEL-5) | GI50 (SK-OV-3) | GI50 (SN12C) | GI50 (SNB-75) | GI50 (UACC-257) | GI50 (UO-31)
O=[N+]([O-])c1ccc(-n2nnc(C3=NCCCN3)c2-c2ccc(Cl)cc2)cc1 | > 100 µM (inactive) | > 100 µM (inactive) | > 100 µM (inactive) | > 100 µM (inactive) | 89.1 µM (inactive) | > 100 µM (inactive) | > 100 µM (inactive) | 58.5 µM (inactive) | 61.1 µM (inactive) | > 100 µM (inactive) | 54 µM (inactive) | > 100 µM (inactive) | 73.1 µM (inactive) | > 100 µM (inactive) | 82.2 µM (inactive) | > 100 µM (inactive) | > 100 µM (inactive) | > 100 µM (inactive) | 67.1 µM (inactive) | 42.3 µM (inactive)
Cc1ccccc1NC(=O)C(=O)C(C1OC(=O)c2ccccc21)[N+](=O)[O-] (stereo not given) | > 100 µM (inactive) | > 100 µM (inactive) | 68.7 µM (inactive) | > 100 µM (inactive) | > 100 µM (inactive) | > 100 µM (inactive) | > 100 µM (inactive) | > 100 µM (inactive) | > 100 µM (inactive) | > 100 µM (inactive) | > 100 µM (inactive) | > 100 µM (inactive) | > 100 µM (inactive) | > 100 µM (inactive) | > 100 µM (inactive) | > 100 µM (inactive) | > 100 µM (inactive) | > 100 µM (inactive) | > 100 µM (inactive) | > 100 µM (inactive)
COC1/C=C/C=C(/C)Cc2cc(O)c(Cl)c(c2)N(C)C(=O)CC(OC(=O)C(C)C)C2(C)OC2C(C)C2CC1(O)NC(=O)O2 (stereo not given) | < 0.01 µM (active) | 21.2 µM (inactive) | 0.394 µM (active) | – | < 0.01 µM (active) | 0.0673 µM (active) | 64.9 µM (inactive) | < 0.01 µM (active) | < 0.01 µM (active) | < 0.01 µM (active) | < 0.01 µM (active) | < 0.01 µM (active) | < 0.01 µM (active) | < 0.01 µM (active) | < 0.01 µM (active) | < 0.01 µM (active) | < 0.01 µM (active) | < 0.01 µM (active) | 4.89 µM (inactive) | < 0.01 µM (active)
CC(C)(C)c1cc(C2COC(=O)COCCOCC(=O)OCCOCCO2)cc(C(C)(C)C)c1O (stereo not given) | > 80.5 µM (inactive) | 18 µM (inactive) | > 100 µM (inactive) | > 95.1 µM (inactive) | > 68.2 µM (inactive) | 36.2 µM (inactive) | 24.7 µM (inactive) | 37.2 µM (inactive) | > 100 µM (inactive) | > 100 µM (inactive) | 42.1 µM (inactive) | 49.4 µM (inactive) | 23.1 µM (inactive) | 24 µM (inactive) | > 100 µM (inactive) | 32.1 µM (inactive) | 21.8 µM (inactive) | 20.9 µM (inactive) | > 71.6 µM (inactive) | 15.6 µM (inactive)
N#Cc1c(Cl)c2cccnc2n2c1nc1ccccc12 | 17.3 µM (inactive) | 1.9 µM (inactive) | 0.9 µM (active) | 4.22 µM (inactive) | 1.7 µM (inactive) | 16.6 µM (inactive) | 1.97 µM (inactive) | 1.94 µM (inactive) | 0.427 µM (active) | 6.41 µM (inactive) | 3.15 µM (inactive) | 7.01 µM (inactive) | 1.42 µM (inactive) | 19 µM (inactive) | 1.13 µM (inactive) | 15.5 µM (inactive) | 2.04 µM (inactive) | 4.38 µM (inactive) | 2.69 µM (inactive) | 1.81 µM (inactive)
Cc1ccc(C(=O)N/N=C(\N=N\c2ccc([N+](=O)[O-])cc2)c2ccc(N(CCC#N)CCC#N)cc2C)cc1 | 64.9 µM (inactive) | > 100 µM (inactive) | 39.8 µM (inactive) | > 100 µM (inactive) | 54.8 µM (inactive) | 71.4 µM (inactive) | > 100 µM (inactive) | 34.3 µM (inactive) | 66.2 µM (inactive) | 39.5 µM (inactive) | 58.3 µM (inactive) | 79.3 µM (inactive) | 16.7 µM (inactive) | 57.9 µM (inactive) | 75.3 µM (inactive) | > 100 µM (inactive) | > 100 µM (inactive) | 43.7 µM (inactive) | 77.6 µM (inactive) | 86.7 µM (inactive)
COc1ccccc1-c1cc(O)c2c(C)ccnc2n1 | 27.6 µM (inactive) | 33 µM (inactive) | 35.6 µM (inactive) | 37 µM (inactive) | – | 30.1 µM (inactive) | 66.7 µM (inactive) | 33.1 µM (inactive) | 14.2 µM (inactive) | 27.7 µM (inactive) | 42.4 µM (inactive) | – | 29.7 µM (inactive) | – | – | 23 µM (inactive) | 41 µM (inactive) | 12.9 µM (inactive) | 47.9 µM (inactive) | 33 µM (inactive)
